Series [1] in a line: Plasma protein binding assay (rapid equilibrium dialysis). The format is in vitro ADME. Here is the method: DMSO stocks were spiked into plasma to a concentration of 10,000 ng/mL. 200 μL of spiked plasma was pipetted into the sample chamber of the rapid equilibrium dialysis (RED) cartridge. 350 μL of PBS was added to the adjacent cartridge. The plate containing the RED was sealed and incubated at 37° C. on the thermomixer at 300 RPM for 4 h. After incubation, 50 μL aliquots of plasma were removed and added to 50 μL of blank plasma in a deep well plate (1:1). Similarly, 50 μL aliquots of PBS were removed and added to 50 μL of blank plasma. This created an identical matrix between buffer and non-buffer samples. Samples were processed and quantified as specified in the LC-MS/MS analytical method.
For orientation: In equilibrium dialysis only unbound substance equilibrates across the membrane.

The next series deals with M. abscessus ATCC 19977. In words: MIC assay in 96-well plate format, wild-type strain. The format is cell-based, Mycobacterium abscessus. The note with it: Table 10. In a few lines:
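Two-fold, ten-point dilutions in 7H9 with 2% DMSO; mid-log culture diluted to OD600=0.1 (1×10^7 CFU/mL). Incubated 3 days at 37 °C, shaking 110 RPM; growth = Day 3 minus Day 0 OD600, expressed as percentage of drug-free growth and plotted against concentration. Two biological replicates.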

Another series has as its system Δarr M. abscessus. Kind of series: MIC assay, isogenic arr-deleted strain. Format: cell-based, Mycobacterium abscessus. As to conditions: Table 10. As for the experimental part:
MIC determination was carried out in 96-well plate format as previously described.^[13-14] 96-well plates were initially set up with 100 μL of 7H9 per well. For each compound, a ten-point two-fold dilution series starting at twice the desired highest concentration was dispensed onto the 96-well plates using a Tecan D300e Digital Dispenser, with the DMSO concentration normalized to 2%. M. abscessus culture grown to mid-log phase (OD600=0.4-0.6) was diluted to OD600=0.1 (1×10^7 CFU/mL). […] Untreated control wells are included on each plate that contain bacteria suspension and 1% DMSO. Plates were sealed with parafilm, stored in boxes with wet paper towels and incubated at 37° C. with shaking (110 RPM). Plates were incubated for 3 days. To determine growth, OD600 was measured using a Tecan Infinite M200 plate reader on Day 0 and Day 3. Two biological replicates were performed. Clarithromycin was included in each experiment as a positive control.
For each well on the 96-well plate, bacterial growth was calculated by subtracting the Day 0 OD600 value from the Day 3 OD600 value. […] For compound-containing wells, percentage growth was calculated by dividing their growth values by the average drug-free bacterial growth for the compound series and multiplying by 100. For each compound series, we plotted percentage growth versus compound concentration.

Series [2] can be described thus: Mouse pharmacokinetics studies. The format is in vivo, CD-1 mice. As to conditions: for ƒAUC/MIC: p.o. doses of 10 mg/kg. As for the experimental part:
Blood was captured in CB300 blood collection tubes containing K2EDTA and stored on ice. Plasma was recovered after centrifugation and stored at −80° C. until analyzed by high pressure liquid chromatography coupled to tandem mass spectrometry (LC-MS/MS). Pharmacokinetic parameters were calculated using non-compartmental pharmacokinetic analysis. […] Extracts were vortexed for 5 minutes and centrifuged at 4000 RPM for 5 minutes. 75 μL of supernatant was transferred for LC-MS/MS analysis and diluted with 75 μL of Milli-Q deionized water. Rifabutin was purchased from Carbosynth. C25-desacetyl rifabutin and rifabutin-d7 were purchased from Toronto Research Chemical. Verapamil was purchased from Sigma-Aldrich. […] Multiple-reaction monitoring of parent/daughter transitions in electrospray positive-ionization mode was used to quantify all analytes. […] Data processing was performed using Analyst software (version 1.6.2; Applied Biosystems Sciex).

Where [3] appears, read: AUC25-O-desacetyl RFB/AUCcompound × 100%, n.d. = undetectable.

SMILES strings stand for the structures.

In series [1] (Table 10), `CO[C@H]1/C=C/O[C@@]2(C)Oc3c(C)c(O)c4c(c3C2=O)C2=NC3(CCN(CC(C)C)CC3)NC2=C(NC(=O)/C(C)=C/C=C/[C@H](C)[C@H](O)[C@@H](C)[C@@H](O)[C@@H](C)[C@H](OC(=O)NCc2cc(-c3ccccc3)no2)[C@@H]1C)C4=O` [UMN40] showed a plasma unbound fraction of 0.12%. The MICWT in the series on M. abscessus ATCC 19977 amounted to 0.035 µM. The MICΔorr against Δarr M. abscessus was 0.03 µM.
The compound `COc1cccc(NC(=O)O[C@H]2[C@H](C)[C@H](O)[C@H](C)[C@@H](O)[C@@H](C)/C=C/C=C(\C)C(=O)NC3=C4NC5(CCN(CC(C)C)CC5)N=C4c4c(c(O)c(C)c5c4C(=O)[C@@](C)(O/C=C/[C@H](OC)[C@H]2C)O5)C3=O)c1` [UMN42] displayed a plasma unbound fraction in series [1] (Table 10) of 0.09%. The same compound returned an MICWT in the series on M. abscessus ATCC 19977 of 0.025 µM. In the series with Δarr M. abscessus, the MICΔorr came to 0.03 µM.
In the same order, the values of `CO[C@H]1/C=C/O[C@@]2(C)Oc3c(C)c(O)c4c(c3C2=O)C2=NC3(CCN(CC(C)C)CC3)NC2=C(NC(=O)/C(C)=C/C=C/[C@H](C)[C@H](O)[C@@H](C)[C@@H](O)[C@@H](C)[C@H](OC(=O)Nc2ccc(C)cc2)[C@@H]1C)C4=O` [UMN43] are 0.05%, 0.05 µM and 0.03 µM.
For `CO[C@H]1/C=C/O[C@@]2(C)Oc3c(C)c(O)c4c(c3C2=O)C2=NC3(CCN(CC(C)C)CC3)NC2=C(NC(=O)/C(C)=C/C=C/[C@H](C)[C@H](O)[C@@H](C)[C@@H](O)[C@@H](C)[C@H](OC(=O)c2nccs2)[C@@H]1C)C4=O` [UMN45], the plasma unbound fraction in series [1] (Table 10) is recorded as 1.89%. The compound also registered an MICWT in the series with M. abscessus ATCC 19977 of 0.017 µM. This compound also registered an MICΔorr against Δarr M. abscessus of 0.017 µM.
Consider `CO[C@H]1/C=C/O[C@@]2(C)Oc3c(C)c(O)c4c(c3C2=O)C2=NC3(CCN(CC(C)C)CC3)NC2=C(NC(=O)/C(C)=C/C=C/[C@H](C)[C@H](O)[C@@H](C)[C@@H](O)[C@@H](C)[C@H](OC(=O)N2CCN(CC(C)C)CC2)[C@@H]1C)C4=O` [UMN53], for which, in series [1] (Table 10), the plasma unbound fraction worked out at 0.20%. The compound also had an MICWT with M. abscessus ATCC 19977 of 0.027 µM. This compound also showed an MICΔorr in the series with Δarr M. abscessus of 0.02 µM.
The corresponding values for `CO[C@H]1/C=C/O[C@@]2(C)Oc3c(C)c(O)c4c(c3C2=O)C2=NC3(CCN(CC(C)C)CC3)NC2=C(NC(=O)/C(C)=C/C=C/[C@H](C)[C@H](O)[C@@H](C)[C@@H](O)[C@@H](C)[C@H](OC(=O)Nc2ccncn2)[C@@H]1C)C4=O` [UMN56] are 5.50%, 0.048 µM and 0.05 µM.
For `CO[C@H]1/C=C/O[C@@]2(C)Oc3c(C)c(O)c4c(c3C2=O)C2=NC3(CCN(CC(C)C)CC3)NC2=C(NC(=O)/C(C)=C/C=C/[C@H](C)[C@H](O)[C@@H](C)[C@@H](O)[C@@H](C)[C@H](OC(=O)N2CCN(c3ccccc3)CC2)[C@@H]1C)C4=O` [UMN58], in series [1] (Table 10), the plasma unbound fraction is 0.13%. The same compound yielded an MICWT in the series with M. abscessus ATCC 19977 of 0.09 µM. Moreover, the MICΔorr against Δarr M. abscessus is 0.049 µM.
In series [1] (Table 10), `CO[C@H]1/C=C/O[C@@]2(C)Oc3c(C)c(O)c4c(c3C2=O)C2=NC3(CCN(CC(C)C)CC3)NC2=C(NC(=O)/C(C)=C/C=C/[C@H](C)[C@H](O)[C@@H](C)[C@@H](O)[C@@H](C)[C@H](OC(=O)N2CCCC2(C)C)[C@@H]1C)C4=O` [UMN61] registered a plasma unbound fraction of 0.17%. In the series on M. abscessus ATCC 19977, this compound yielded an MICWT of 0.08 µM. This compound had an MICΔorr with Δarr M. abscessus of 0.052 µM.
The corresponding values for `CO[C@H]1/C=C/O[C@@]2(C)Oc3c(C)c(O)c4c(c3C2=O)C2=NC3(CCN(CC(C)C)CC3)NC2=C(NC(=O)/C(C)=C/C=C/[C@H](C)[C@H](O)[C@@H](C)[C@@H](O)[C@@H](C)[C@H](OC(=O)N2CCN(C(C)(C)C)CC2)[C@@H]1C)C4=O` [UMN63] are 3.60%, 0.077 µM and 0.043 µM.
In the case of `CO[C@H]1/C=C/O[C@@]2(C)Oc3c(C)c(O)c4c(c3C2=O)C2=NC3(CCN(CC(C)C)CC3)NC2=C(NC(=O)/C(C)=C/C=C/[C@H](C)[C@H](O)[C@@H](C)[C@@H](O)[C@@H](C)[C@H](OC(=O)Nc2cccnn2)[C@@H]1C)C4=O` [UMN64], in series [1] (Table 10), the plasma unbound fraction came out at 4.15%. This compound also gave an MICWT against M. abscessus ATCC 19977 of 0.032 µM. The compound also displayed an MICΔorr in the series with Δarr M. abscessus of 0.034 µM.
The corresponding values for `CO[C@H]1/C=C/O[C@@]2(C)Oc3c(C)c(O)c4c(c3C2=O)C2=NC3(CCN(CC(C)C)CC3)NC2=C(NC(=O)/C(C)=C/C=C/[C@H](C)[C@H](O)[C@@H](C)[C@@H](O)[C@@H](C)[C@H](OC(=O)Nc2cccnc2)[C@@H]1C)C4=O` [UMN67] are 1.75%, 0.025 µM and 0.025 µM.
As for `COC1C=COC2(C)Oc3c(C)c(O)c4c(c3C2=O)C2=NC3(CCN(CC(C)C)CC3)NC2=C(NC(=O)C(C)=CC=CC(C)C(O)C(C)C(O)C(C)C(OC(=O)N2CCOC(C)C2)C1C)C4=O` (stereo not shown) [UMN68], the plasma unbound fraction in series [1] (Table 10) stood at 2.40%. Further, the MICWT in the series on M. abscessus ATCC 19977 worked out at 0.061 µM. The MICΔorr with Δarr M. abscessus stood at 0.033 µM.
In turn, `COC1C=COC2(C)Oc3c(C)c(O)c4c(c3C2=O)C2=NC3(CCN(CC(C)C)CC3)NC2=C(NC(=O)C(C)=CC=CC(C)C(O)C(C)C(O)C(C)C(OC(=O)N2CCOC(C)C2)C1C)C4=O` (stereo not shown) [UMN70] gave a plasma unbound fraction in series [1] (Table 10) of 0.56%. Also, the MICWT against M. abscessus ATCC 19977 worked out at 0.08 µM. For the same compound, the MICΔorr against Δarr M. abscessus is 0.026 µM.
The corresponding values for `CO[C@H]1/C=C/O[C@@]2(C)Oc3c(C)c(O)c4c(c3C2=O)C2=NC3(CCN(CC(C)C)CC3)NC2=C(NC(=O)/C(C)=C/C=C/[C@H](C)[C@H](O)[C@@H](C)[C@@H](O)[C@@H](C)[C@H](OC(=O)N2CCOC(C)(C)C2)[C@@H]1C)C4=O` [UMN71] are 0.39%, 0.076 µM and 0.032 µM.
The corresponding values for `CCOC(=O)C1CN(C(=O)O[C@H]2[C@H](C)[C@H](O)[C@H](C)[C@@H](O)[C@@H](C)/C=C/C=C(\C)C(=O)NC3=C4NC5(CCN(CC(C)C)CC5)N=C4c4c(c(O)c(C)c5c4C(=O)[C@@](C)(O/C=C/[C@H](OC)[C@H]2C)O5)C3=O)CCO1` (stereo partly shown) [UMN72] are 0.75%, 0.082 µM and 0.040 µM.
In series [1] (Table 10), `CCN1CCN(C(=O)O[C@H]2[C@H](C)[C@H](O)[C@H](C)[C@@H](O)[C@@H](C)/C=C/C=C(\C)C(=O)NC3=C4NC5(CCN(CC(C)C)CC5)N=C4c4c(c(O)c(C)c5c4C(=O)[C@@](C)(O/C=C/[C@H](OC)[C@H]2C)O5)C3=O)CC1` [UMN73] displayed a plasma unbound fraction of 0.65%. Besides, the MICWT against M. abscessus ATCC 19977 was 0.1 µM. In the series on Δarr M. abscessus, the MICΔorr was determined as 0.052 µM.
The corresponding values for `CO[C@H]1/C=C/O[C@@]2(C)Oc3c(C)c(O)c4c(c3C2=O)C2=NC3(CCN(CC(C)C)CC3)NC2=C(NC(=O)/C(C)=C/C=C/[C@H](C)[C@H](O)[C@@H](C)[C@@H](O)[C@@H](C)[C@H](OC(=O)NCc2cn(Cc3ccccc3)nn2)[C@@H]1C)C4=O` [UMN85] are 0.30%, 0.027 µM and 0.025 µM.
In series [2] (setting [3]), `CO[C@H]1/C=C/O[C@@]2(C)Oc3c(C)c(O)c4c(c3C2=O)C2=NC3(CCN(CC(C)C)CC3)NC2=C(NC(=O)/C(C)=C/C=C/[C@H](C)[C@H](O)[C@@H](C)[C@@H](O)[C@@H](C)[C@H](OC(=O)c2ccccc2)[C@@H]1C)C4=O` [drawing 217] had a C-25 deacylation i.v. of 0.03% and a C-25 deacylation p.o. of 0.008%. Moreover, in series [2] (Table 12), the CL was found to be 2.4 mL/min/kg; the Vd (as a rule, the apparent volume that relates the amount in the body to the concentration in plasma or blood) worked out at 2.9 L/kg; the t1/2 was found to be 13.8 h; the ƒAUC/MIC is on record as 0.08. In addition, the plasma unbound fraction in series [1] (Table 12) was 0.03%.
In series [2] (Table 12), `CO[C@H]1/C=C/O[C@@]2(C)Oc3c(C)c(O)c4c(c3C2=O)C2=NC3(CCN(CC(C)C)CC3)NC2=C(NC(=O)/C(C)=C/C=C/[C@H](C)[C@H](O)[C@@H](C)[C@@H](O)[C@@H](C)[C@H](OC(=O)c2cccnc2)[C@@H]1C)C4=O` [drawing 222] showed a CL of 3.0 mL/min/kg, a Vd of 1.6 L/kg and a ƒAUC/MIC of 28.2.

For the origin of these results see US20260109712A1, “RIFAMYCINS FOR NONTUBERCULOUS MYCOBACTERIA” (priority 2022, published 2026).
